ChEMBL document CHEMBL1201862, “PubChem BioAssay data set” (2004)
Active and inactive are the calls of the source.

Tests used:
Phospholipase A2 = Phospholipase A2 (Homo sapiens, UniProt P04054); assay type: functional;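 note: confirmatory dose-response counterscreen on phospholipase A2, testing hits that came from an ultra-high-throughput screen for ATG4B inhibitors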
[1] = molecular target: T1, Mitochondrial peptide methionine sulfoxide reductase (Bos taurus, UniProt P54149); assay type: functional;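 note: absorbance read-out, biochemical high-throughput dose-response screen for MsrA inhibitors, confirmatory; recombinant bovine MsrA coupled to E. coli TrxB with NADPH and selenocystamine; potency is for inhibitors of MsrA activity on DMSO substrate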
T1 sequence (P54149 whole entry): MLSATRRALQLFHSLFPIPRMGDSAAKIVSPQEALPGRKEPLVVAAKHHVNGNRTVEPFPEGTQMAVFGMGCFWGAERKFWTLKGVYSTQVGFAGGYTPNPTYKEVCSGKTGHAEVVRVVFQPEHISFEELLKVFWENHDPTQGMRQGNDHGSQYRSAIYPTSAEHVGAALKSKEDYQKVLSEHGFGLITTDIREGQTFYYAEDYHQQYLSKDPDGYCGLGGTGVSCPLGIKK

HEK293 = test: EBV LMP1 TES2 canonical NF-kB signalling blockers – cell-based, HEK293, luciferase, cherry-pick, dose response (AID 588343); assay type: functional, Homo sapiens
[2] = molecular target: T2, Latent membrane protein 1 (Human herpesvirus 4 (strain B95-8), UniProt P03230); test: LMP1 TES1 pathway selectivity over dsRED control – imaging, HEK293T, dual-color eGFP/dsRED, cherry-picks, selectivity assay for LMP1 NF-kB inhibitor project, dose response (AID 588398); assay type: functional, cell-based
T2 sequence (P03230 whole entry): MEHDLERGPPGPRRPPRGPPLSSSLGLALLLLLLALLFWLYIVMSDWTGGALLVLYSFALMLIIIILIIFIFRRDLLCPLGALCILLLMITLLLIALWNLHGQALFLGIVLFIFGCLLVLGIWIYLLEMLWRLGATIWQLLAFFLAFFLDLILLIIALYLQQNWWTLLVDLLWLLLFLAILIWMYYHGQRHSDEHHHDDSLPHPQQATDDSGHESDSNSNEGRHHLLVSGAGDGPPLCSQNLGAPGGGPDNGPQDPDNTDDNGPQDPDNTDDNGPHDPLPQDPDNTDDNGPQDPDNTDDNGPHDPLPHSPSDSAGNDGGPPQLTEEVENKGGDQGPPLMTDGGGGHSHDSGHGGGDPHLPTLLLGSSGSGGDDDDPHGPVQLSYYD

[3] = Luminescence Cell-Based Dose Response HTS to Identify Inhibitors of 5'UTR Stem-Loop Driven Prion Protein mRNA Translation in H4 Neuroglioblastoma Cells. [Related pubchem assays: 1827 (Project Summary), 1813 (Primary HTS)]; assay type: functional
[4] = alpha-synuclein stem-loop luciferase translation blockers – H4 neuroglioma cells, luminescence, confirmation (AID 1988); assay type: functional, cell-based
[5] = luciferase reporter signal suppression in cells – H4 neuroglioma cells, luminescence, dose response (AID 1990); assay type: functional, cell-based
Caspase-3 = molecular target: T3, Caspase-3 (Homo sapiens, UniProt P42574); assay type: functional;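 note: Dose-response selectivity test against caspase-3 for candidate inhibitors of sentrin-specific proteases (SENPs)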
T3 sequence (P42574 whole entry): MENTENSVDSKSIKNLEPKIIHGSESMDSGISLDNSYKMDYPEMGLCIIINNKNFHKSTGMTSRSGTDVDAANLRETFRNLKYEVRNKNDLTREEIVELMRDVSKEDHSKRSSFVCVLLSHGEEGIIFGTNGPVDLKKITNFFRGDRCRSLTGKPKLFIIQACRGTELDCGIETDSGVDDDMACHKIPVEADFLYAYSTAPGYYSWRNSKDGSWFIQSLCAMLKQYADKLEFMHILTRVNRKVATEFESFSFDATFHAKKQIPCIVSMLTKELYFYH

[6] = molecular target: T4, Sentrin-specific protease 7 (Homo sapiens, UniProt Q9BQF6); assay type: functional;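 note: Luminescence-based dose-response confirmation of ultra-high-throughput screening hits, measuring inhibition of SENP7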
T4 sequence (Q9BQF6 whole entry): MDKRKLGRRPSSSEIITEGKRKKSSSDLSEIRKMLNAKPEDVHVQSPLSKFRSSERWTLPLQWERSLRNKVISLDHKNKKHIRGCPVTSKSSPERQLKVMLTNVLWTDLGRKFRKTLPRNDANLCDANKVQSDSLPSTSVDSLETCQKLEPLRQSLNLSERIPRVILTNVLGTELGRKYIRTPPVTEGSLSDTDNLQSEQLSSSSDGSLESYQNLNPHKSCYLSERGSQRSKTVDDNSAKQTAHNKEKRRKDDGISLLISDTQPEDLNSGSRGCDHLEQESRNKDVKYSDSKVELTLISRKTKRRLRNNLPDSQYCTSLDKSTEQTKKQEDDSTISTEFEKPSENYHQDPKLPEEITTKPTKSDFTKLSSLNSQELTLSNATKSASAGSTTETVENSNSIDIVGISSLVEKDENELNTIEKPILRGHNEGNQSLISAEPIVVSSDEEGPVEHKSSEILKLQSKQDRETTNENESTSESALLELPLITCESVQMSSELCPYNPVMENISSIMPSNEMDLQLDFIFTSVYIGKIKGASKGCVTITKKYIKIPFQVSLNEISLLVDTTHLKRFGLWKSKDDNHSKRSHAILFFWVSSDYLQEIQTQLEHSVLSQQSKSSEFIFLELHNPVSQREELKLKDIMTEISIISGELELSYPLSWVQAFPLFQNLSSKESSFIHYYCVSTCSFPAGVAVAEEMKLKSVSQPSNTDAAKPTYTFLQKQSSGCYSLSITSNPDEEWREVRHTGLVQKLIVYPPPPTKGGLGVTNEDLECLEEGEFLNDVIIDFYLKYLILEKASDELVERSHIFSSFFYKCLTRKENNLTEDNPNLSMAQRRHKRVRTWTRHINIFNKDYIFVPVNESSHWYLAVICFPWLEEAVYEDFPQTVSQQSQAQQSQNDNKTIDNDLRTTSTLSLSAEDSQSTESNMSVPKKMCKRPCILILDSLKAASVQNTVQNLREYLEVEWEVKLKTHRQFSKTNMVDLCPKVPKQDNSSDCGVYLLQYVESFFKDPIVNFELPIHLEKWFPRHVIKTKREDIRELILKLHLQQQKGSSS

[7] = molecular target: T5, Sentrin-specific protease 6 (Homo sapiens, UniProt Q9GZR1); assay type: functional;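 note: Luminescence-based dose-response confirmatory assay of SENP6 inhibition, following up an ultra-high-throughput screen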
T5 sequence (Q9GZR1 whole entry): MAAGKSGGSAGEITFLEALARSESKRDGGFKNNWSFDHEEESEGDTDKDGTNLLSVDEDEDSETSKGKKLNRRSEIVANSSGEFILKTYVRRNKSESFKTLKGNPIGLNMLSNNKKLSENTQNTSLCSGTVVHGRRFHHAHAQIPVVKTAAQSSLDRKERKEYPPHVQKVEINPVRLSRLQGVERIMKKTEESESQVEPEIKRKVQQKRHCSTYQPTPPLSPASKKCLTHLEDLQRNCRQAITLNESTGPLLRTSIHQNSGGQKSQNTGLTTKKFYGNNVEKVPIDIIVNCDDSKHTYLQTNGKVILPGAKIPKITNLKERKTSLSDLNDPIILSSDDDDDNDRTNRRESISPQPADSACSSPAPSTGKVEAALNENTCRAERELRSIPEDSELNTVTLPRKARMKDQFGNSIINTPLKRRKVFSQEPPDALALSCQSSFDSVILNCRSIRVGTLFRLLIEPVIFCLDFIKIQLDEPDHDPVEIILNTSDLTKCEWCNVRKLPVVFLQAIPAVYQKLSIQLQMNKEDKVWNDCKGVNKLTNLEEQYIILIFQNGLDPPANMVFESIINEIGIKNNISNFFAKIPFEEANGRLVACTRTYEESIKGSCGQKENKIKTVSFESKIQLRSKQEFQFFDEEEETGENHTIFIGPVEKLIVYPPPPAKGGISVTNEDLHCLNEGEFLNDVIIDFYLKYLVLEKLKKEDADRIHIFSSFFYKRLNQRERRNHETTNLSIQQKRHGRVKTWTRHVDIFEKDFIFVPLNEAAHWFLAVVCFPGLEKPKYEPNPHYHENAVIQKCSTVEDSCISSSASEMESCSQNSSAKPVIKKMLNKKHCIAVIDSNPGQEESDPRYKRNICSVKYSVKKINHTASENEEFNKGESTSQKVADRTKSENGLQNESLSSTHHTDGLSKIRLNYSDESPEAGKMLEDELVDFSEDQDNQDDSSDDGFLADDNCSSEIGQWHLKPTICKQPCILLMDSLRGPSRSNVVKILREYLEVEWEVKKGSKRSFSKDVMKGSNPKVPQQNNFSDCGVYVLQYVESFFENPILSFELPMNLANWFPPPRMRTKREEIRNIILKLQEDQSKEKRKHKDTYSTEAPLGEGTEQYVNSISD

[8] = molecular target: T6, Sentrin-specific protease 8 (Homo sapiens, UniProt Q96LD8); assay type: functional;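 note: luminescence read-out of SENP8 inhibition, dose-response confirmation following an ultra-high-throughput screen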
T6 sequence (Q96LD8 whole entry): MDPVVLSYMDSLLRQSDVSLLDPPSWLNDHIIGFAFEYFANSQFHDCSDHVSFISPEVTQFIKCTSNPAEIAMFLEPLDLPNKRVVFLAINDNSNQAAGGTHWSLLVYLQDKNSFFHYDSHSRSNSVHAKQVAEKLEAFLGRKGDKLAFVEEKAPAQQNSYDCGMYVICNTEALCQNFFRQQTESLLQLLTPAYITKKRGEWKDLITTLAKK

Aminopeptidase N = molecular target: T7, Aminopeptidase N (Plasmodium falciparum FcB1/Columbia, UniProt O96935); test: malaria alanyl aminopeptidase activity blockers – biochemical, fluorogenic H-Leu-NHMec substrate, 1536-well (AID 1445); set-up: species or system Plasmodium falciparum 3D7, 3D7
T7 sequence (O96935 whole entry): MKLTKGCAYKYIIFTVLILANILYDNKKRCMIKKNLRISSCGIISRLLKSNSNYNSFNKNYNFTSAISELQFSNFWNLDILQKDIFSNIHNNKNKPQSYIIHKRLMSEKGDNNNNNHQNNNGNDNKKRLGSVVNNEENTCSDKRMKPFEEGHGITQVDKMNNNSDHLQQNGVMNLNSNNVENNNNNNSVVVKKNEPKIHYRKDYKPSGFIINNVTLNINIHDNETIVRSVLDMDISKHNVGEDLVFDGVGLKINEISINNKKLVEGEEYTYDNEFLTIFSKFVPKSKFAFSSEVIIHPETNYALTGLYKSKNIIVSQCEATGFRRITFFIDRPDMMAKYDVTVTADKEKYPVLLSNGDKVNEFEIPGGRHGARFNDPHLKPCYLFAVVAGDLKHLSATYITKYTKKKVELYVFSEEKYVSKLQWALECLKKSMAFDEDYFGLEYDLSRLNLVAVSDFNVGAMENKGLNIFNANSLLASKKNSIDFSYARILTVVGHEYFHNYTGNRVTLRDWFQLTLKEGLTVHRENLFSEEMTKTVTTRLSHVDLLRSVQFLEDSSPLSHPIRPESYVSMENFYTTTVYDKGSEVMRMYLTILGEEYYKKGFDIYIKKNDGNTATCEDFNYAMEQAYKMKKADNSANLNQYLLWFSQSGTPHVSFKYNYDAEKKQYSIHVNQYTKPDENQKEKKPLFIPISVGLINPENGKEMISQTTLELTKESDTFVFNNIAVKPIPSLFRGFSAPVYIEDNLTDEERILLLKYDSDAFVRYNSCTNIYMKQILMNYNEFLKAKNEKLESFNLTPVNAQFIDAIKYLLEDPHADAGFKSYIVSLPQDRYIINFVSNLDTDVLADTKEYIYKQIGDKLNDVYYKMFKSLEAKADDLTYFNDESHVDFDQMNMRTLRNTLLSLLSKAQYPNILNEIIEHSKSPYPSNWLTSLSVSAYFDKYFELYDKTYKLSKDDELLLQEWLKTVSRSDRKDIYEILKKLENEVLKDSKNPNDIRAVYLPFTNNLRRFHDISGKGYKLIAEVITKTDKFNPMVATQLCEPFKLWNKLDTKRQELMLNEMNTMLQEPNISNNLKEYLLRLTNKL

Interleukin-8 [9] = molecular target: T8, Interleukin-8 (Homo sapiens, UniProt P10145); test: Dose Response confirmation of uHTS small molecule hits for cystic fibrosis induced NFkb Inhibitors in a PAF-induced IL8 counterscreen.; assay type: functional; details: read-out: IC50_Mean
T8 sequence (P10145 whole entry): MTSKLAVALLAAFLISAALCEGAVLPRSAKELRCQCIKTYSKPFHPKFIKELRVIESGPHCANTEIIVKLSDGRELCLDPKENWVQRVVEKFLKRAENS

Interleukin-8 [10] = molecular target: T8, Interleukin-8; test: Dose Response confirmation of uHTS small molecule hits for cystic fibrosis induced NFkb Inhibitors in a TNFa-induced IL8 counterscreen.; assay type: functional; details: read-out: IC50_Mean

Chain of Phospholipase A2 (P04054 whole entry): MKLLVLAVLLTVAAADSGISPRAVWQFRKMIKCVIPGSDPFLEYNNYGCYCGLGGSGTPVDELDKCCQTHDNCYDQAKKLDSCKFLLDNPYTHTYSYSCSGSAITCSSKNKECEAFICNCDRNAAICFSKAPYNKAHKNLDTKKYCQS

CC(C)(C)C(=O)CSc1ncnc2sc3c(c12)CCC3
IC50 (Phospholipase A2): 2.59 µM (active)

CCOP(=O)(Nc1ccc2c(c1)C(=NNC(N)=S)c1ccccc1-2)OCC
IC50 [1]: 95.9 µM (inactive)

O=Cc1cc(OCc2ccccc2)ccc1[B-](F)(F)F
AC50 (HEK293; Homo sapiens, HEK293): 2.86 µM (active) | AC50 [2]: 1.14 µM (active)

c1ccc(-c2cn3c4c(sc3n2)CCCC4)cc1
AC50 (HEK293; hek293): 2.07 µM (active) | EC50 [3]: 6.75 µM (active) | AC50 [2]: 47.1 µM (active) | EC50 [4]: 6.38 µM (active)

N#CC1=C(N)N2C(=C(C#N)C1c1cccc(Br)c1)Nc1ccccc12 (stereo not given)
AC50 (HEK293; Homo sapiens, HEK293): 3.62 µM (active) | EC50 [5]: 11.3 µM (active) | EC50 [3]: 14.6 µM (active) | AC50 [2]: 54 µM (active) | EC50 [4]: 12.9 µM (active)

Cc1ccccc1-c1nc2cc(Cl)ccc2o1
IC50 (Caspase-3): 12.9 µM (active) | IC50 [6]: 4.69 µM (active) | IC50 [7]: 13.7 µM (active) | IC50 [8]: 79.7 µM (active)

COCc1cc(C)n(CC(=O)N/N=C/c2ccc(-c3ccc(Cl)c(C(=O)O)c3)o2)c(=O)c1C#N
IC50 [1]: 99.4 µM (inactive) | IC50 (Aminopeptidase N): 24.7 µM (active)

O=C1C=C(NC2=CC3OC(c4ccccc4)OCC3OC2=O)CCC1 (stereo not given)
IC50 (Interleukin-8 [9]): 1.5 µM (active) | IC50 (Interleukin-8 [10]): 1.07 µM (active)

CC(C)C(=O)Nc1ccc2nn(-c3ccccc3)nc2c1
IC50 (Caspase-3): 26.7 µM (active) | IC50 [6]: 8.73 µM (active) | IC50 [7]: > 100 µM (inactive) | IC50 [8]: > 100 µM (inactive)
